Legend:
[1] = system: D. fragilis or B. hominis; assay: Treatment of patients with D. fragilis and/or B. hominis infection (combined infection), symptoms and overall outcome; assay type: in vivo, Dientamoeba fragilis; Blastocystis hominis; conditions: for stool examination after previous treatments / symptoms after previous treatments: patient, various treatments before referral; for outcome of previous treatments: patient with combined B. hominis and D. fragilis infection, 3 different treatments before referral
Procedure: In another aspect the present invention relates to triple combinations of drugs. In some circumstances, especially with resistance even triple therapies may need to be combined to effect a cure. […] Again, the treatment requires 1 mg-5 grams/day of each of the components from 1-50 days. Other triple combinations can include iodoquinol, furazolidone and nitazoxanide. Combinations can also include diloxinide furoate, doxycycline and metronidazole in various triple combinations.
(§1) The patient was brought into the clinic and after bowel preparation a transcolonoscopic infusion of furazolidone, nitazoxanide and secnidazole was carried out.
The patient was referred to the Clinic for treatment. Symptoms were quite severe and they were given a combination of four medications including Septrin DS (cotrimoxazole) two times a day, diloxanide furoate 500 mg three times a day and secnidazole 400 mg three times a day together with doxycycline 50 mg two times a day.

Giardia lamblia = assay: Treatment of a patient with chronic Giardiasis, follow-up by stool tests and symptoms; assay type: in vivo; conditions: previous speculative treatment in adequate doses
From the text: A patient with weight loss and diarrhea presented for an endoscopy.

B. hominis [2] = assay: Treatment of patients with B. hominis infection, follow-up by stool test and symptoms; assay type: in vivo, Blastocystis hominis
B. hominis [3] = conditions: in Egypt; Rossignol et al 2005; cited from earlier work
D. fragilis = assay: Treatment of patients with D. fragilis infection, follow-up by stool test; assay type: in vivo, Dientamoeba fragilis; conditions: clinical experience and usage; also frequently ineffective as monotherapy
Procedure: as §1

[4] = person, 400 mg bid for 14 days, at 6 months

O=C1OCCN1/N=C/c1ccc([N+](=O)[O-])o1 [furazolidone]
stool examination after previous treatments [1]: ongoing B. hominis and D. fragilis
symptoms after previous treatments [1]: improved but then they recurred

Cc1ncc([N+](=O)[O-])n1CCO [metronidazole]
Giardia lamblia infection, histologically at endoscopy (Giardia lamblia): continued to have Giardia lamblia infection
diarrhea (Giardia lamblia): did not settle
outcome of previous therapies (B. hominis [2]; resistant Blastocystis hominis, multiple therapies before referral): failed
outcome of previous treatments [1]: failed
stool examination after previous treatments [1]: ongoing B. hominis and D. fragilis
symptoms after previous treatments [1]: improved but then they recurred

CC(=O)Oc1ccccc1C(=O)Nc1ncc([N+](=O)[O-])s1 [nitazoxanide]
effectiveness against Blastocystis hominis (B. hominis [3]): effective
stool examination after previous treatments [1]: ongoing B. hominis and D. fragilis
symptoms after previous treatments [1]: improved but then they recurred

CCn1cc(C(=O)O)c(=O)c2cc(F)c(N3CCNCC3)cc21 [norfloxacin]
effectiveness in treatment against Blastocystis hominis (B. hominis [2]; clinical experience and usage, also frequently ineffective as monotherapy): effective
stool test for B. hominis (B. hominis [2]; [4]): negative for B. hominis again
symptoms (B. hominis [2]; [4]): still asymptomatic
stool test for B. hominis (B. hominis [2]; person, 400 mg bid for 14 days, follow up at 4 weeks): negative for B. hominis
effectiveness in treatment against Dientamoeba fragilis (D. fragilis): effective

CCS(=O)(=O)CCn1c([N+](=O)[O-])cnc1C [tinidazole]
outcome of previous treatments [1]: failed
